{"source": "patent US12522576B2", "about": "“Polymorphs of D9-THC naphthoylester” (priority 2019, dated 2026)", "key": {"[1]": {"assay_type": "physicochemical", "conditions": "for Time of conversion to Form C in the solid-state: ambient temperature", "protocol": "Powder X-Ray Diffraction (PXRD). PXRD diffractograms were acquired on a PANalytical X'Pert Pro diffractometer using Ni-filtered Cu Ka (45 kV/40 mA) radiation and a step size of 0.03° 2θ and X'celerator™ RTMS (Real Time Multi-Strip) detector. Configuration on the incidental beam side: variable divergence slits (10 mm irradiated length), 0.04 rad Soller slits, fixed anti-scatter slit (0.50 o), and 10 mm beam mask. Configuration on the diffracted beam side: variable anti-scatter slit (10 mm observed length) and 0.04 rad Soller slit. Samples were mounted flat on zero-background Si wafers.\nGroup D solvates converted to Form C in the solid-state at different rates, depending on the solvent included. […] No phase-pure Group D was isolated from acetone-containing solvents, indicating the unstable nature of this solvate."}, "[2]": {"experiment": "Gravimetric solubility", "assay_type": "physicochemical", "conditions": "20 °C, organic solvent or mixture, thermodynamic from solid, RT, read-out: Gravimetric Solubility at RT", "protocol": "Additional solids or solvents were added to visual solubility samples with vials less than 100 mg/mL to produce slurries at 20 and 50° C. for the subsequent equilibrium solubility assessment. The slurries were stirred at 20 and 50° C. overnight, filtered through 0.2 μm syringe filters and evaporated to dryness under reduced pressure at ambient temperature. Gravimetric solubility was calculated by dividing the dry solids residue mass (mg) by the solvent mass (g). The mg/g solubility values were then converted to mg/mL using solvent density.\nThe solubility of Group D acetone and DMF solvates were assessed in the corresponding solvents."}, "[3]": {"experiment": "Polymorph screen of Exo-impurity", "assay_type": "physicochemical"}, "[4]": {"experiment": "Competitive ripening (relative thermodynamic stability of non-solvated forms)", "conditions": "Table 6 summary"}, "[5]": {"experiment": "D9 solubility in the liquors at isolation temperature", "assay_type": "physicochemical", "conditions": "crystallisation liquors over suspended solid, 25 °C, organic solvent or mixture, thermodynamic from solid, batch 5; Nitromethane; seed G; heat T 40; isolation T 25; 32.6 mL/g; SP 3", "protocol": "At the end of each experiment, suspensions were equilibrated at the isolation temperature (25 or 5° C.) for at least 18 hours and the solids and liquors separated by centrifugation at the isolation temperature. The Exo/D9/D8 ratio (Exo-D9-THC-naphthoylester impurity/D9-THC-naphthoylester/D8-THC-naphthoylester) was determined in both the isolated solids and the liquors, from which the % Exo-depletion in the isolated solids was calculated. Several solids were also isolated at elevated temperatures to assess the impact of the isolation temperature on Exo-impurity depletion.\nIn addition, the solubility of D9 in the liquors was determined in most of the explored solvents and used to estimate the yield."}, "[6]": {"conditions": "Experiment No. 20, Nitromethane, seed Form E"}, "[7]": {"conditions": "Experiment No. 21, DMSO, seed Group D"}, "[8]": {"conditions": "Experiment No. 22, Acetone, seed Group D"}, "[9]": {"conditions": "Experiment No. 23, MeCN, seed Group D"}, "[10]": {"conditions": "Experiment No. 24, P-Xylene/MeOH (10:90), seed Form E"}}}
{"smiles": "CCCCCc1cc(OC(=O)c2ccc3ccccc3c2)c2c(c1)OC(C)(C)[C@@H]1CCC(C)=C[C@@H]21", "note": "[DMSO solvate]", "values": [{"measurement": "Time of conversion to Form C in the solid-state", "setting": "[1]", "result": "within five days"}]}
{"smiles": "CCCCCc1cc(OC(=O)c2ccc3ccccc3c2)c2c(c1)OC(C)(C)[C@@H]1CCC(C)=C[C@@H]21", "note": "[Acetone solvate of Group D]", "values": [{"measurement": "solubility", "setting": "[2]; solvent Acetone, Batch 7", "result": 98, "unit": "mg/mL"}, {"measurement": "Stability of solvate", "setting": "[1]; no phase-pure Group D isolated from acetone-containing solvents", "result": "unstable"}]}
{"smiles": "C=C1CC[C@@H]2[C@@H](C1)c1c(OC(=O)c3ccc4ccccc4c3)cc(CCCCC)cc1OC2(C)C", "note": "[Exo, (6aR,10aR)-6,6-dimethyl-9-methylene-3-pentyl-6a,7,8,9,10,10a-hexahydro-6H-benzo[c]chromen-1-yl 2-naphthoate]", "values": [{"measurement": "Form Isolated at 5° C. 6 D (Exo)", "setting": "[3]; [6]", "result": "Input"}, {"measurement": "Form Isolated at RT 5 D (Exo)", "setting": "[3]; [6]", "result": "Input"}, {"measurement": "Form Isolated at 5° C. 6 D (Exo)", "setting": "[3]; [7]", "result": "Input"}, {"measurement": "Form Isolated at RT 5 D (Exo)", "setting": "[3]; [7]", "result": "Input"}, {"measurement": "Form Isolated at 5° C. 6 D (Exo)", "setting": "[3]; [8]", "result": "Input"}, {"measurement": "Form Isolated at RT 5 D (Exo)", "setting": "[3]; [8]", "result": "No"}, {"measurement": "Form Isolated at 5° C. 6 D (Exo)", "setting": "[3]; [9]", "result": "Input"}, {"measurement": "Form Isolated at RT 5 D (Exo)", "setting": "[3]; [9]", "result": "Input"}, {"measurement": "Form Isolated at 5° C. 6 D (Exo)", "setting": "[3]; [10]", "result": "Input"}, {"measurement": "Form Isolated at RT 5 D (Exo)", "setting": "[3]; [10]", "result": "Input"}, {"measurement": "Polymorphism", "setting": "[3]; seeded slurries at RT and 5° C.", "result": "No evidence of polymorphism"}]}
{"smiles": "CCCCCc1cc(OC(=O)c2ccc3ccccc3c2)c2c(c1)OC(C)(C)[C@@H]1CCC(C)=C[C@@H]21", "note": "[Form F, (6aR,10aR)-6a,7,8,10a-tetrahydro-6,6,9-trimethyl-3-pentyl-6H-dibenzo[b,d]pyran-1-yl ester]", "values": [{"measurement": "Form conversion by PXRD", "setting": "[1]; wet-cake after air-drying for five minutes at ambient", "result": "converted to Form E"}, {"measurement": "Nature (thermodynamic stability of crystal form)", "setting": "[4]", "result": "Transient"}]}
{"smiles": "CCCCCc1cc(OC(=O)c2ccc3ccccc3c2)c2c(c1)OC(C)(C)[C@@H]1CCC(C)=C[C@@H]21", "note": "[DMF solvate of Group D]", "values": [{"measurement": "solubility", "setting": "[2]; solvent DMF, Batch 8", "result": 95, "unit": "mg/mL"}, {"measurement": "Time of conversion to Form C in the solid-state", "setting": "[1]", "result": "overnight"}]}
{"smiles": "CCCCCc1cc(OC(=O)c2ccc3ccccc3c2)c2c(c1)OC(C)(C)[C@@H]1CCC(C)=C[C@@H]21", "note": "[Form E, (6aR,10aR)-6a,7,8,10a-tetrahydro-6,6,9-trimethyl-3-pentyl-6H-dibenzo[b,d]pyran-1-yl ester]", "values": [{"measurement": "solubility", "setting": "[5]", "result": 7000, "unit": "µg/mL"}, {"measurement": "Nature (thermodynamic stability of crystal form)", "setting": "[4]", "result": "Metastable"}]}
